Data on 29 molecules can be found in patent US8697739B2, “Bicyclic acetyl-CoA carboxylase inhibitors and uses thereof” (Novartis AG, priority 2010, dated 2014).

A value given as a limit tells only on which side of the number the result lay.

The target of this assay is T1, human acetyl-CoA carboxylase 2 (ACC2) (Homo sapiens, UniProt O00763).
T1 construct: The cDNA encoding amino acids 144 to 2458 of human acetyl-CoA carboxylase 2; made in house; host or cells: Sf9 insect cells (baculovirus, pFastBac1)
T1 sequence (O00763 144-2458): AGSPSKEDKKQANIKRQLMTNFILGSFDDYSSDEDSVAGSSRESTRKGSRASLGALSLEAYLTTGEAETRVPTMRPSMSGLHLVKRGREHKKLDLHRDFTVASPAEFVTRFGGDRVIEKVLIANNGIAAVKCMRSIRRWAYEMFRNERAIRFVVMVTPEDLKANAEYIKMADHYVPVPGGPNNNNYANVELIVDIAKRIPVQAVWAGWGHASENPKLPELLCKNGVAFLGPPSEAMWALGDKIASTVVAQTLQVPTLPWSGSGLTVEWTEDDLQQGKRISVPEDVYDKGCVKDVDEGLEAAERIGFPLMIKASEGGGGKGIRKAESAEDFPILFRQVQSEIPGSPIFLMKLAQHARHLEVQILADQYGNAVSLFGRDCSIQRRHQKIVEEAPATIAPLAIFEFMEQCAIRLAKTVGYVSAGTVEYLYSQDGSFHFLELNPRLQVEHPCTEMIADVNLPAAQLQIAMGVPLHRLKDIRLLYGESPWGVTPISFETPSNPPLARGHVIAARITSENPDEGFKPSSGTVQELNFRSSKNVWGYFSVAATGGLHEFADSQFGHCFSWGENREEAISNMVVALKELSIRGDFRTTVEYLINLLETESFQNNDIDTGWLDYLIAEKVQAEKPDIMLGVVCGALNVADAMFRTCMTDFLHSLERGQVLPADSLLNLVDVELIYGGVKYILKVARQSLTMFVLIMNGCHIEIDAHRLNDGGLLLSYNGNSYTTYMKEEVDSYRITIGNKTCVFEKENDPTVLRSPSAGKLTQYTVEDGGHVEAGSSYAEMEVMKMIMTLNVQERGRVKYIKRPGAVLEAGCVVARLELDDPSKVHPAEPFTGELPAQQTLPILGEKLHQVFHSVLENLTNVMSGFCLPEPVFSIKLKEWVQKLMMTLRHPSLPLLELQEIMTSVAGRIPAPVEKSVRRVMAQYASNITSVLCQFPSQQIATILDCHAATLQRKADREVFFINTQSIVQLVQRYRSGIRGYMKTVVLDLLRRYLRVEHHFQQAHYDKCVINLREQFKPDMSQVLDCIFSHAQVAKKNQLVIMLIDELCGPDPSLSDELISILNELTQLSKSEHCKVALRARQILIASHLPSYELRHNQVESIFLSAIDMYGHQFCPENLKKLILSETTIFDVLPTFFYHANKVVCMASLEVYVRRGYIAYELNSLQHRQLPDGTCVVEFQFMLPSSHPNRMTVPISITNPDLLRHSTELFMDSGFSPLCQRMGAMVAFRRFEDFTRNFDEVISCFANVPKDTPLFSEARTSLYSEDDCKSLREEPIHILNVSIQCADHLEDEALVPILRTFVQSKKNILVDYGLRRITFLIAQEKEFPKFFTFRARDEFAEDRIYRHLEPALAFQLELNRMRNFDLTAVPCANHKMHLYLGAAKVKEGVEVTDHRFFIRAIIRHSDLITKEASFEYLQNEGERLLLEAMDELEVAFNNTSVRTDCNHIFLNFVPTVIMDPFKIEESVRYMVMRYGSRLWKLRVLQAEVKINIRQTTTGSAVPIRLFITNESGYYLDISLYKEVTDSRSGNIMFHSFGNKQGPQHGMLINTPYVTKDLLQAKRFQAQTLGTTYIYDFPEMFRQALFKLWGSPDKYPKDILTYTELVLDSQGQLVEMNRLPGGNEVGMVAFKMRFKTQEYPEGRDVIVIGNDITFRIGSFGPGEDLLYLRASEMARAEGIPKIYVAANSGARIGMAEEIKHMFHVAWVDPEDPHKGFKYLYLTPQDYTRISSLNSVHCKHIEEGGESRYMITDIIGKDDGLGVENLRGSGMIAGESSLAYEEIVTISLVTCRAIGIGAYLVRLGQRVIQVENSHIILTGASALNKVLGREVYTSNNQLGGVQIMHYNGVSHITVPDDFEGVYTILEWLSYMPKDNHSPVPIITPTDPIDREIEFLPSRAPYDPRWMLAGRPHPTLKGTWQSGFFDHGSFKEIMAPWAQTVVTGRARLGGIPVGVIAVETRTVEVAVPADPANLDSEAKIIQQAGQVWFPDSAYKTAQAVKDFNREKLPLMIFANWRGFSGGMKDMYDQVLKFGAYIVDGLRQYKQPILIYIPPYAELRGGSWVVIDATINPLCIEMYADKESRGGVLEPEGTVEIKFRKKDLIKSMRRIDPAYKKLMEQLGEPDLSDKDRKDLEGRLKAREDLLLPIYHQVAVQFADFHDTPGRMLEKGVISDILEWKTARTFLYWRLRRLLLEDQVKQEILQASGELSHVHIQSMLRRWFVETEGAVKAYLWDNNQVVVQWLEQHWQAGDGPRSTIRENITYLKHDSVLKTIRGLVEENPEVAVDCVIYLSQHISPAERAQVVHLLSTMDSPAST
The experiment in a line: Acetyl-CoA carboxylase enzyme assay (malonyl-CoA formation by LC/MS/MS). It counts as biochemical. The note with it: recombinant human ACC2 (aa 144-2458); read-out: IC50 ACC2. The method, boiled down: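 Malonyl-CoA formation was read by LC/MS/MS MRM against a [13C3]-malonyl-CoA internal standard, after acetic acid quench. The enzyme was baculovirus/Sf9-expressed human ACC2 residues 144–2458, given 15 minutes room-temperature compound preincubation in HEPES pH 7.5 buffer with MgCl2, citrate and DTT. Substrate solution held 50 μM acetyl-CoA, 120 μM ATP and 2 mM KHCO3.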
Take `C[C@@H]1CCCN1C(=O)[C@H]1CC[C@H](NS(=O)(=O)c2cnc3c(c2)N(C)CCN3C)CC1` [Example 129, 1,4-dimethyl-N-((1R,4r)-4-((R)-2-methylpyrrolidine-1-carbonyl)cyclohexyl)-1,2,3,4-tetrahydropyrido[3,2-b]pyrazine-7-sulfonamide]: the IC50 was 10400 nM.
For `C[C@@H](NC(=O)[C@H]1CC[C@H](NS(=O)(=O)c2ccc3ccccc3c2)CC1)c1cccnc1` [Example 682, (1r,4R)-4-(naphthalene-2-sulfonamido)-N-((R)-1-(pyridin-3-yl)ethyl)cyclohexanecarboxamide] the value was 144 nM; for `CC(C)OC(=O)c1ccc(NS(=O)(=O)c2ccc3nc(-c4ccc(OC(C)C)cc4)[nH]c3c2)cc1` [Example 505, isopropyl 4-(2-(4-isopropoxyphenyl)-1H-benzo[d]imidazole-6-sulfonamido)benzoate], 1780 nM; for `C[C@@H](NC(=O)[C@H]1CC[C@H](NS(=O)(=O)c2ccc3[nH]c([C@@H]4CCCO4)nc3c2)CC1)c1ccc(F)cc1` [Example 114, (1r,4R)-N-((R)-1-(4-fluorophenyl)ethyl)-4-(2-((S)-tetrahydrofuran-2-yl)-1H-benzo[d]imidazole-5-sulfonamido)cyclohexanecarboxamide], 296 nM.
In the case of `C[C@@H](NC(=O)[C@H]1CC[C@H](NS(=O)(=O)c2ccc3oc4ccccc4c3c2)CC1)c1ccc(F)cc1` [Example 243, (1r,4R)-4-(dibenzo[b,d]furan-2-sulfonamido)-N-((R)-1-(4-fluorophenyl)ethyl)cyclohexanecarboxamide], the IC50 amounted to 15 nM.
Turning to `Cc1ccccc1-c1cc2ccc(S(=O)(=O)N[C@H]3CC[C@H](C(=O)N4CCN[C@@H](C(F)(F)F)C4)CC3)cc2[nH]1` [Example 343, 2-o-tolyl-N-((1R,4r)-4-((R)-3-(trifluoromethyl)piperazine-1-carbonyl)cyclohexyl)-1H-indole-6-sulfonamide], the IC50 worked out at 170 nM.
For `Cc1cc(CO)ccc1-c1cc2ccc(S(=O)(=O)N[C@H]3CC[C@H](C(=O)N4CCNC(C(F)(F)F)C4)CC3)cc2n1C` (some centres unmarked) [Example 318, 2-(4-(hydroxymethyl)-2-methylphenyl)-1-methyl-N-((1r,4r)-4-(3-(trifluoromethyl)piperazine-1-carbonyl)cyclohexyl)-1H-indole-6-sulfonamide], the IC50 stood at 515 nM.
Consider `C[C@@H](NC(=O)[C@H]1CC[C@H](NS(=O)(=O)c2ccc3cc(-c4ccc(CO)cc4)[nH]c3c2)CC1)c1ccc(F)cc1` [Example 296, (1r,4R)-N-((R)-1-(4-fluorophenyl)ethyl)-4-(2-(4-(hydroxymethyl)phenyl)-1H-indole-6-sulfonamido)cyclohexanecarboxamide], for which the IC50 is < 10 nM.
In the case of `C[C@@H](NC(=O)C12CCC(NS(=O)(=O)c3cnc4c(c3)NCCN4)(CC1)CC2)c1ccc(F)cc1` [Example 270, (R)-N-(1-(4-fluorophenyl)ethyl)-4-(1,2,3,4-tetrahydropyrido[3,2-b]pyrazine-7-sulfonamido)bicyclo[2.2.2]octane-1-carboxamide] it was 165 nM.
Take `O=C([C@H]1CC[C@H](NS(=O)(=O)c2ccc3cc(-c4ccccc4)[nH]c3c2)CC1)N1CCOC[C@@H]1C1CC1` [Example 472, N-((1S,4r)-4-((S)-3-cyclopropylmorpholine-4-carbonyl)cyclohexyl)-2-phenyl-1H-indole-6-sulfonamide]: the concentration for half-maximal inhibition (IC50) is < 10 nM.
In the case of `C[C@@H](NC(=O)[C@H]1CC[C@H](NS(=O)(=O)c2ccc3nc(OCC(=O)O)ccc3c2)CC1)c1ccc(F)cc1` [Example 78, 2-(6-(N-((1R,4r)-4-((R)-1-(4-fluorophenyl)ethylcarbamoyl)cyclohexyl)sulfamoyl)quinolin-2-yloxy)acetic acid] it was 470 nM; in that of `COc1cccc(-c2nc3ccc(S(=O)(=O)Nc4ccc(C(=O)OC(C)C)cc4)cc3[nH]2)c1` [Example 500, isopropyl 4-(2-(3-methoxyphenyl)-1H-benzo[d]imidazole-6-sulfonamido)benzoate], 1490 nM.
For `Cn1c(-c2ccccc2)cc2ccc(S(=O)(=O)N[C@H]3CC[C@H](C(=O)N[C@@H](c4ccccc4)C(C)(C)CO)CC3)cc21` [Example 439, (1r,4S)-N-((S)-3-hydroxy-2,2-dimethyl-1-phenylpropyl)-4-(1-methyl-2-phenyl-1H-indole-6-sulfonamido)cyclohexanecarboxamide] the value was < 10 nM; for `Cn1ccc2cc(S(=O)(=O)N[C@H]3CC[C@H](C(=O)N[C@H]4CCCCNC4=O)CC3)ccc21` [Example 672, (1r,4S)-4-(1-methyl-1H-indole-5-sulfonamido)-N-((S)-2-oxoazepan-3-yl)cyclohexanecarboxamide], 639 nM.
In the case of `CN1CCN(C)c2ncc(S(=O)(=O)N[C@H]3CC[C@H](C(=O)N4CCNCC4c4ccccc4)CC3)cc21` (some centres unmarked) [Example 183, 1,4-dimethyl-N-((1r,4r)-4-(2-phenylpiperazine-1-carbonyl)cyclohexyl)-1,2,3,4-tetrahydropyrido[3,2-b]pyrazine-7-sulfonamide] it was 135 nM; in that of `O=C([C@H]1CC[C@H](NS(=O)(=O)c2ccc3c(c2)Cc2ccccc2-3)CC1)N1CCNC[C@@H]1c1ccccc1` [Example 244, N-((1S,4r)-4-((S)-2-phenylpiperazine-1-carbonyl)cyclohexyl)-9H-fluorene-2-sulfonamide], < 10 nM; in that of `COc1ccc(Nc2nc3cc(S(=O)(=O)N[C@H]4CC[C@H](c5nnc(C(C)(C)C)o5)CC4)ccc3[nH]2)cc1` [Example 596, N-((1r,4r)-4-(5-tert-butyl-1,3,4-oxadiazol-2-yl)cyclohexyl)-2-(4-methoxyphenylamino)-1H-benzo[d]imidazole-5-sulfonamide], 180 nM.
`Cc1ccccc1-c1cc2ccc(S(=O)(=O)N[C@H]3CC[C@H](C(=O)N4CCCC4c4ccccc4)CC3)cc2[nH]1` (some centres unmarked) [Example 335, N-((1r,4r)-4-(2-phenylpyrrolidine-1-carbonyl)cyclohexyl)-2-o-tolyl-1H-indole-6-sulfonamide]: the IC50 is 25 nM.
For `CC(C)OC(=O)c1ccc(NS(=O)(=O)c2ccc3nc(-c4ccncc4)[nH]c3c2)cc1` [Example 515, isopropyl 4-(2-(pyridin-4-yl)-1H-benzo[d]imidazole-6-sulfonamido)benzoate] the value was 2860 nM; for `Cn1c(C2CC2)cc2ccc(S(=O)(=O)N[C@H]3CC[C@](C)(C(=O)N4CCOCC4)CC3)cc21` [Example 24, 2-cyclopropyl-1-methyl-N-((1r,4r)-4-methyl-4-(morpholine-4-carbonyl)cyclohexyl)-1H-indole-6-sulfonamide], 230 nM.
In the case of `C[C@@H](NC(=O)[C@H]1CC[C@H](NS(=O)(=O)c2ccc3c(c2)N(C)C(C(=O)O)CC3)CC1)c1ccc(F)cc1` (stereo partly drawn) [Example 225, 7-(N-((1R,4r)-4-((R)-1-(4-fluorophenyl)ethylcarbamoyl)cyclohexyl)sulfamoyl)-1-methyl-1,2,3,4-tetrahydroquinoline-2-carboxylic acid] it was 85 nM.
For `COCc1ccc(-c2cc3ccc(S(=O)(=O)N[C@H]4CC[C@H](C(=O)N5CCOC[C@@H]5C5CC5)CC4)cc3[nH]2)cc1` [Example 455, N-((1S,4r)-4-((S)-3-cyclopropylmorpholine-4-carbonyl)cyclohexyl)-2-(4-(methoxymethyl)phenyl)-1H-indole-6-sulfonamide] the value was < 10 nM.
As for `Cc1nc2cc(S(=O)(=O)NC3CCC(c4nnc(C(C)C)o4)CC3)ccc2[nH]1` (centres unmarked) [Example 613, N-((1r,4r)-4-(5-isopropyl-1,3,4-oxadiazol-2-yl)cyclohexyl)-2-methyl-1H-benzo[d]imidazole-5-sulfonamide], the IC50 stood at 39600 nM.
On to `CC(C)(C)OC(=O)N1CCN(C(=O)[C@H]2CC[C@H](NS(=O)(=O)c3cnc4ccccc4c3)CC2)C(c2ccccc2)C1` (some centres unmarked) [Example 60, tert-butyl 3-phenyl-4-((1r,4r)-4-(quinoline-3-sulfonamido)cyclohexanecarbonyl)piperazine-1-carboxylate], for which the IC50 stood at 131 nM.
In the case of `O=C1NCCCCC1NC(=O)[C@H]1CC[C@H](NS(=O)(=O)c2ccc3cc(-c4ccccc4)[nH]c3c2)CC1` (some centres unmarked) [Example 466, (1r,4r)-N-(2-oxoazepan-3-yl)-4-(2-phenyl-1H-indole-6-sulfonamido)cyclohexanecarboxamide] it was 10 nM.
Take `C[C@@H](NC(=O)[C@H]1CC[C@H](NS(=O)(=O)c2ccc3nc(OC4COC4)ccc3c2)CC1)c1ccc(F)cc1` [Example 64, (1r,4R)-N-((R)-1-(4-fluorophenyl)ethyl)-4-(2-(oxetan-3-yloxy)quinoline-6-sulfonamido)cyclohexanecarboxamide]: the IC50 worked out at 42 nM.
In the case of `Cc1ccc2cc(S(=O)(=O)N[C@H]3CC[C@H](C(=O)N[C@H](C)c4ccc(F)cc4)CC3)ccc2n1` [Example 72, (1r,4R)-N-((R)-1-(4-fluorophenyl)ethyl)-4-(2-methylquinoline-6-sulfonamido)cyclohexanecarboxamide] it was 115 nM.
For `COCCc1ccc(-c2[nH]c3cc(S(=O)(=O)N[C@H]4CC[C@H](C(=O)N5CCOC[C@@H]5C5CC5)CC4)ccc3c2Cl)cc1` [Example 471, 3-chloro-N-((1S,4r)-4-((S)-3-cyclopropylmorpholine-4-carbonyl)cyclohexyl)-2-(4-(2-methoxyethyl)phenyl)-1H-indole-6-sulfonamide] the value was < 10 nM.
With `CCOC(=O)C1CCCCN1C(=O)[C@H]1CC[C@H](NS(=O)(=O)c2ccc3cc(-c4ccc(COC)cc4)[nH]c3c2)CC1` (some centres unmarked) [Example 340, ethyl 1-((1r,4r)-4-(2-(4-(methoxymethyl)phenyl)-1H-indole-6-sulfonamido)cyclohexanecarbonyl)piperidine-2-carboxylate], the IC50 is 255 nM.
